Results reported in patent US7312024B2, “Materials and methods to inhibit Hodgkin and Reed Sternberg cell growth” (Amgen Canada Inc., priority 1999, dated 2007).

Tested on: HDLM2 cells
Test: [3H]-thymidine incorporation proliferation of HDLM2 cells after neutralization of IL-13
Type: cell-based, human
Conditions: IL-13 0.5-200 ng/ml
Procedure: To investigate the effects of IL-13 and IL-5 on the proliferation of H/RS cells, L428, KMH2 and HDLM2 cells were incubated with either (i) medium alone, (ii) medium containing neutralizing antibodies to IL-13 or IL-5, or (ii) isotype matched control antibodies. Proliferation was measured by determining [^3H]-thyridine incorporation at 24, 48, or 72 hours after treatment.
HD-derived L428, KMH2, and HDLM2 cells and LCL control cells (2×10^4/well) were cultured in 96-well flat-bottom plates for 24 hours, 48 hours, or 72 hours in the presence of anti-IL-13, anti-IL-5, or isotype control antibodies at 5, 10, 20, 30, 50, 100 or 150 μg/ml. Cells were treated either with IL-13 (0.5, 1, 5, 10, 50, 100 and 200 ng/ml), or with these same doses of IL-13 combined with 20 μg/ml anti-IL-13 monoclonal antibody. Tritium-labeled thymidine (1 μCi/well) was added to each well and incubation continued for eight hours. Cells were harvested on filters and incorporation of […] into cellular DNA was measured as previously described [Shahinian, et al., Science 261:609-12 (1993)]. The viability of cultured cell lines after treatment with anti-IL-13 neutralizing antibodies was examined by 7-aminoactinomycin D (7-AAD) staining.

IL-13: exogenous IL-13 cytokine added to cells
proliferation with exogenous IL-13 alone versus untreated cells: did not result in an increase in proliferation
